# Legend:
# [1] = target: Myosin-IIIa (Homo sapiens) (UniProt Q8NEV4); settings: at 10 µM
# [2] = test system: Epidermal growth factor receptor (Homo sapiens), P00533 [L858R]; settings: at 10 µM
# [3] = target: Angiopoietin-1 receptor (Homo sapiens) (UniProt Q02763); assay: Selectivity interaction (Kinase screening (Nanosyn)) EUB0000604a TEK
# [4] = target: T1, Mitogen-activated protein kinase kinase kinase 19 (Homo sapiens) (UniProt Q56UN5); assay: Selectivity interaction (KinomeScan (DiscoverX)) EUB0000229b MAP3K19; settings: at 10 µM
# T1 sequence (whole entry): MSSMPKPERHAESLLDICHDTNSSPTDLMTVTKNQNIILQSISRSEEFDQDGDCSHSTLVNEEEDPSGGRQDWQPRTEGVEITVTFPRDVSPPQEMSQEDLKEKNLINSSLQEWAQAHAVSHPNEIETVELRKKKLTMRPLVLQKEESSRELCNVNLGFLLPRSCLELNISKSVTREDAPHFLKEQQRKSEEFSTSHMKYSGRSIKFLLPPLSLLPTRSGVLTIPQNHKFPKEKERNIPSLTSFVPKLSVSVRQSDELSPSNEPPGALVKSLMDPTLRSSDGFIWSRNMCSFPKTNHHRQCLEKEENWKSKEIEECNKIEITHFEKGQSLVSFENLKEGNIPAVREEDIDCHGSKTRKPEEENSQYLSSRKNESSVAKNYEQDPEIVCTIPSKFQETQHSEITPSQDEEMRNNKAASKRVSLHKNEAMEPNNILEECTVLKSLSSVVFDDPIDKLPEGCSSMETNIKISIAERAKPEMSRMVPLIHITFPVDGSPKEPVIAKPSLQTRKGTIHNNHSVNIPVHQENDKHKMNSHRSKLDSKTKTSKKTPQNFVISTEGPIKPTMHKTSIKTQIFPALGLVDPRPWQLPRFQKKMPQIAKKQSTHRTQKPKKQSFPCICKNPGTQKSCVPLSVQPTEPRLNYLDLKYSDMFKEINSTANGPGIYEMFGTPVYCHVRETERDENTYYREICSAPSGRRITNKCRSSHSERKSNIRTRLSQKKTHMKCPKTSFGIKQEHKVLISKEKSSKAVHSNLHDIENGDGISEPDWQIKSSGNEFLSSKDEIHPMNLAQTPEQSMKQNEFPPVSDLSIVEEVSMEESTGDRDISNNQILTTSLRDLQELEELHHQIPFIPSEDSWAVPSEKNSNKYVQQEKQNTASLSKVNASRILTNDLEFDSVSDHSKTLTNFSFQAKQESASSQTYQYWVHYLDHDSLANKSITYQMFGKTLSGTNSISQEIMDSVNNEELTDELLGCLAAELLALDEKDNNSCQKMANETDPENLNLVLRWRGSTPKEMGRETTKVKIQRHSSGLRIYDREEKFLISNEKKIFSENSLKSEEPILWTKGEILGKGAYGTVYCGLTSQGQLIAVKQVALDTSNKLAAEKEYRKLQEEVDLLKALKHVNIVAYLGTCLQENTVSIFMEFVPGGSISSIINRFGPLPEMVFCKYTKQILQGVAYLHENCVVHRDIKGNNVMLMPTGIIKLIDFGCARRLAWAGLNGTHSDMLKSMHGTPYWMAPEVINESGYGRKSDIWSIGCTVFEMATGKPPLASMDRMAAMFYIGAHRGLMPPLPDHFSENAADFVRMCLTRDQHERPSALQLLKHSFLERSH
# [5] = target: Beta-3 adrenergic receptor (Homo sapiens) (UniProt P13945); assay: Selectivity interaction (GPCR panel (PDSP screen)) EUB0001079a ADRB3; settings: at 10 µM
# [6] = target: T2, 5-hydroxytryptamine receptor 3A (Homo sapiens) (UniProt P46098); assay: Selectivity interaction (GPCR panel (PDSP screen)) EUB0001079a HTR3A; settings: at 10 µM
# T2 sequence (whole entry): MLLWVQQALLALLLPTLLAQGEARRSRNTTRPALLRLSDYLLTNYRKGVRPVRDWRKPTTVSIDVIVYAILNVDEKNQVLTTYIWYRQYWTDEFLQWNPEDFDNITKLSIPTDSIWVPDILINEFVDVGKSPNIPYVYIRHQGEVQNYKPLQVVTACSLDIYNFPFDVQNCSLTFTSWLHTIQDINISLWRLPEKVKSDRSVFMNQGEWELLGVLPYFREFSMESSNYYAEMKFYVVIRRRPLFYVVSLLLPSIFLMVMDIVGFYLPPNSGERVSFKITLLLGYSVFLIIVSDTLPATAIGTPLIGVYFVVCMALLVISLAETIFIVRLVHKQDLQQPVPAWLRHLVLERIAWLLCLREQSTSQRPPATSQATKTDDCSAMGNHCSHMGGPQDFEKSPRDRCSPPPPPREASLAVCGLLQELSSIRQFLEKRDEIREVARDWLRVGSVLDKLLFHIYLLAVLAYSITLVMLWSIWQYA
# [7] = target: Transcription initiation factor TFIID subunit 1 (Homo sapiens) (UniProt P21675); assay: Selectivity interaction (Human bromodomain panel (DSF assay)) EUB0000233b TAF1
# [8] = target: Phosphatidylinositol 4,5-bisphosphate 3-kinase catalytic subunit beta isoform (Homo sapiens) (UniProt P42338); assay: Selectivity interaction (KinomeScan (DiscoverX)) EUB0000045b PIK3CB
# [9] = target: Serine/threonine-protein kinase SIK1 (Homo sapiens) (UniProt P57059); assay: Selectivity interaction (KinomeScan (DiscoverX)) EUB0000045b SIK1
# [10] = target: Serine/threonine-protein kinase Nek6 (Homo sapiens) (UniProt Q9HC98); assay: Selectivity interaction (KinomeScan (DiscoverX)) EUB0000655a NEK6; settings: at 10 µM
# Serine/threonine-protein kinase Nek6 (Homo sapiens), sequence (Q9HC98 whole entry): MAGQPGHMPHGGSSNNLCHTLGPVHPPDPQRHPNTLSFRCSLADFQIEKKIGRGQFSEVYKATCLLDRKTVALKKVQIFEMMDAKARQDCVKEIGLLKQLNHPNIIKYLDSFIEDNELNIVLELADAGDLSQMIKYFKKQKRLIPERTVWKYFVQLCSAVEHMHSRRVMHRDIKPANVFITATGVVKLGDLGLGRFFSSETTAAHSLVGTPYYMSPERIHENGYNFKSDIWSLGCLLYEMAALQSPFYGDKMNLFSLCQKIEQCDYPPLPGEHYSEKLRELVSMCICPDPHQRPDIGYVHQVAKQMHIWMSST
# Phosphatidylinositol 4,5-bisphosphate 3-kinase catalytic subunit beta isoform (Homo sapiens), sequence (P42338 whole entry, looked up, canonical isoform): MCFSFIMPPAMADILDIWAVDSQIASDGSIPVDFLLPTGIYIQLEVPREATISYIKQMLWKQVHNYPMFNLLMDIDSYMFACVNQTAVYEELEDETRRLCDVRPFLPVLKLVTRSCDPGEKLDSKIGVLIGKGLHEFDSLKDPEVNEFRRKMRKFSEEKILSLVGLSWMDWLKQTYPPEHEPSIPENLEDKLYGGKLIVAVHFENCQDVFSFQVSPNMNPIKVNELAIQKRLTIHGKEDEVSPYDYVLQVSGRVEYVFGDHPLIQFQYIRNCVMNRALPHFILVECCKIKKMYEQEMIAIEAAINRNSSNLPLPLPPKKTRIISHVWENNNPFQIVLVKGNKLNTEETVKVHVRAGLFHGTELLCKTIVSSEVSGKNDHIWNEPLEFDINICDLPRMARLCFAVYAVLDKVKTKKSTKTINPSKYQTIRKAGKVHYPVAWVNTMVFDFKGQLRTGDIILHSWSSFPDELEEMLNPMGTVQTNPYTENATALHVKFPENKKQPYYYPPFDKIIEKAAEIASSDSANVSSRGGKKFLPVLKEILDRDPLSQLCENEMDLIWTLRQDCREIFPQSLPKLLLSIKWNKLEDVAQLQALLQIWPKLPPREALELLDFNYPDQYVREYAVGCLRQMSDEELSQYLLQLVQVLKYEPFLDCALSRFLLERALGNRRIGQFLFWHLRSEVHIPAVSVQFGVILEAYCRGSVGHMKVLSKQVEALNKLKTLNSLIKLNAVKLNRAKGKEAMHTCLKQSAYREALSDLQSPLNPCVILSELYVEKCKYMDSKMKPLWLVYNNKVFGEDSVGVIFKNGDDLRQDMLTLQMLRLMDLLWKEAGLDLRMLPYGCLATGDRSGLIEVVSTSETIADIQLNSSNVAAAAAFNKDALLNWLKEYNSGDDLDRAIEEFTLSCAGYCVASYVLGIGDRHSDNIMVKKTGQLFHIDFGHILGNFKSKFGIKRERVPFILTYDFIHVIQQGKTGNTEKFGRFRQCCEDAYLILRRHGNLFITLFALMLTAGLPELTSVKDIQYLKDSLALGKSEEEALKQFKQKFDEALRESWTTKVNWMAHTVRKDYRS
# Serine/threonine-protein kinase SIK1 (Homo sapiens), sequence (P57059 whole entry): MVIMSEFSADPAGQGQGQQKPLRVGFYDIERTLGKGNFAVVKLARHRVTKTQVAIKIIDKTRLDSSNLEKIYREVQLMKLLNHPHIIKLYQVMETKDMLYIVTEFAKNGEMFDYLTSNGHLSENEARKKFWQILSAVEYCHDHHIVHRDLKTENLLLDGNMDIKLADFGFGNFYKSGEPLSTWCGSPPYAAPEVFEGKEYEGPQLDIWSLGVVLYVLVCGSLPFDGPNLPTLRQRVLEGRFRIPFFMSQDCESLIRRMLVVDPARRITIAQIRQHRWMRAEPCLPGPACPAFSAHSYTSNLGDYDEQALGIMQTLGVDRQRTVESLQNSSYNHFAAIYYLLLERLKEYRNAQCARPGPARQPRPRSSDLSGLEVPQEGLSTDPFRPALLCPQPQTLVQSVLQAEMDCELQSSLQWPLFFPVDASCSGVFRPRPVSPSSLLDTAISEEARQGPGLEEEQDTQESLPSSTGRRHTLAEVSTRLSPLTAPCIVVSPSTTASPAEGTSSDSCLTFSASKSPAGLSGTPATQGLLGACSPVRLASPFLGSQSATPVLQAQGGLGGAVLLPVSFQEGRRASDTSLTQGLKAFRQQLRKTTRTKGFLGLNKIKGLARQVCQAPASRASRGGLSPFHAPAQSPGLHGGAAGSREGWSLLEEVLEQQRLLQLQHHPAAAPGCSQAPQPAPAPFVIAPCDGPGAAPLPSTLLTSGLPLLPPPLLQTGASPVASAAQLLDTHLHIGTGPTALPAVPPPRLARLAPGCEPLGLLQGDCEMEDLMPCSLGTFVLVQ
# Angiopoietin-1 receptor (Homo sapiens), sequence (Q02763 whole entry): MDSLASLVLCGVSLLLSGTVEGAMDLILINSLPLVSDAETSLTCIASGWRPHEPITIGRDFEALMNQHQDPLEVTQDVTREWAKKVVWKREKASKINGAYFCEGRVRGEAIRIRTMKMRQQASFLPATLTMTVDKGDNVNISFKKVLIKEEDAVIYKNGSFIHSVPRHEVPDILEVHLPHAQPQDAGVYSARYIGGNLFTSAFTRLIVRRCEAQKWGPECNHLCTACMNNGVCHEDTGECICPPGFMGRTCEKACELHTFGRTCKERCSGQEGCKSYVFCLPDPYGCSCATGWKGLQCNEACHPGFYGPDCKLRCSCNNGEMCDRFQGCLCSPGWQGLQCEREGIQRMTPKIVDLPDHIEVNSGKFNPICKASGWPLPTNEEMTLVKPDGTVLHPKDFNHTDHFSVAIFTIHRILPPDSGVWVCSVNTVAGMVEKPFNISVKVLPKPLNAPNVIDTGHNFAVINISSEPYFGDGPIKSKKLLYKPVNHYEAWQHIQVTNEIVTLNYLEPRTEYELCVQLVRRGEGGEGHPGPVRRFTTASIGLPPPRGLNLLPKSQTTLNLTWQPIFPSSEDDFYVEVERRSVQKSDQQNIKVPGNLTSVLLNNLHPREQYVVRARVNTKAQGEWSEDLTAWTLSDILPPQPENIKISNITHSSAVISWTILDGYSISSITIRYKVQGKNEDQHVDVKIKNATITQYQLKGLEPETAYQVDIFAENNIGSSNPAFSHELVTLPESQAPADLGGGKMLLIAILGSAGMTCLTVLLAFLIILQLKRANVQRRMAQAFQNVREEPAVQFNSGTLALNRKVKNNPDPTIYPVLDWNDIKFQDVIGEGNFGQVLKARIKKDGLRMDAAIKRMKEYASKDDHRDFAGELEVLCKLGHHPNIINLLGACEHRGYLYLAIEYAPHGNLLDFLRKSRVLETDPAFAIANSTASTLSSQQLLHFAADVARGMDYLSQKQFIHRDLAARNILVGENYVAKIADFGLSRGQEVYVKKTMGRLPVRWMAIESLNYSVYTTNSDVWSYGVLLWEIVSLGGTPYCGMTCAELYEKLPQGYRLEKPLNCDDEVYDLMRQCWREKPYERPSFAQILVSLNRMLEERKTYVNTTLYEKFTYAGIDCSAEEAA
# Beta-3 adrenergic receptor (Homo sapiens), sequence (P13945 whole entry, looked up): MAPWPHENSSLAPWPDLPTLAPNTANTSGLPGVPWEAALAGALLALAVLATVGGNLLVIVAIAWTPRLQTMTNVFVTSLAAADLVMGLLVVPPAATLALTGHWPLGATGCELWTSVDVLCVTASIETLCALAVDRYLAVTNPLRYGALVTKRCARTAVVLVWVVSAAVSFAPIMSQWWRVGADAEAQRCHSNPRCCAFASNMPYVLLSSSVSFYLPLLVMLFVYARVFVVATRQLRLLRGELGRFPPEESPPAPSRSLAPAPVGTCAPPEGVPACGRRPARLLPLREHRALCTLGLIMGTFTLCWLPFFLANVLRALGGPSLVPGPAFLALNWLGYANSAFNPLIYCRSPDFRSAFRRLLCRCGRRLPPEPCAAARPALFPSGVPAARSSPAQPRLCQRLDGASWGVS
# Epidermal growth factor receptor (Homo sapiens), P00533 [L858R], sequence (P00533 whole entry L858R): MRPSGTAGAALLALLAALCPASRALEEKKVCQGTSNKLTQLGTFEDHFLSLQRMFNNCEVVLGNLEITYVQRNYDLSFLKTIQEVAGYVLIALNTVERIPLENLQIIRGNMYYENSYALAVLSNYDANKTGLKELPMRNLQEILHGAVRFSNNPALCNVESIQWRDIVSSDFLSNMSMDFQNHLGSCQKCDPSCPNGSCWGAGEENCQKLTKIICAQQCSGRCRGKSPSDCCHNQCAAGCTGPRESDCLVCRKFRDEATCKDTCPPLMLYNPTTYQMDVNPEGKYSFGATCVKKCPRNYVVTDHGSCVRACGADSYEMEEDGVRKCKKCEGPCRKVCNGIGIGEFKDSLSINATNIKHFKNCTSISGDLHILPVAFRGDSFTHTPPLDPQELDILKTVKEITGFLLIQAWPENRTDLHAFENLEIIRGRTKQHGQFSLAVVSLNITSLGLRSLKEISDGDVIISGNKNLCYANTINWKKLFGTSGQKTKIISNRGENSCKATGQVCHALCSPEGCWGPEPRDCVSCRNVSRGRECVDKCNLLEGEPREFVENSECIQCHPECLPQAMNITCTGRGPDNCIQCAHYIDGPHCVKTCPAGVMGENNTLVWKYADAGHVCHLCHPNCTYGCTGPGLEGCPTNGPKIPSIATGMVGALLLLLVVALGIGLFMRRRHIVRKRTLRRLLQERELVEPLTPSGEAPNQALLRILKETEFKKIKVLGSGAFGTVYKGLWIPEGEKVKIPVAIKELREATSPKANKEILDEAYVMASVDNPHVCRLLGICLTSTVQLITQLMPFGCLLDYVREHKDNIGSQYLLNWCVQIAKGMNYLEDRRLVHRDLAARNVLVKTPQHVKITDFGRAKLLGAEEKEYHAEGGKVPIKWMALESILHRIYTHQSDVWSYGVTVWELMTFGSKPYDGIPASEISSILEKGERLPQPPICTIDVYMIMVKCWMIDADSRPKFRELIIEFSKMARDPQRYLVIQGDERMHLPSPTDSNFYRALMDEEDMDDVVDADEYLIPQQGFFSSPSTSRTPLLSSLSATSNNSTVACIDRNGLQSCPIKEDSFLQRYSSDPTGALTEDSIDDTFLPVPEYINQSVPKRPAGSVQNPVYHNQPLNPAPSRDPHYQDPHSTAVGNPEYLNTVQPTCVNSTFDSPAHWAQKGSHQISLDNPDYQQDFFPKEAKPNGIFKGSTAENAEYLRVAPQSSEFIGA
compound,measurement,setting,value
Cc1cc([C@@H](C)Nc2ccccc2C(=O)O)c2nc(N3CCOCC3)cc(=O)n2c1 [AZD-6482],% of control,[1],97%
same,% of control,[2],100%
Cc1cnc(Nc2ccc(F)cc2Cl)nc1-c1c[nH]c(C(=O)N[C@H](CO)c2cccc(Cl)c2)c1,% of inhibition,[3],0%
COc1cc(N(C)c2ccnc3ccc(C(F)(F)F)cc23)cc(OC)c1OC,% binding,[4],94%
Nc1cnc(N2CCc3cc(S(=O)(=O)Nc4c(F)cc(Cl)cc4F)cc(N4CCCC4=O)c32)nc1 [TP-020n],% of inhibition,[5],-2.69%
same,% of inhibition,[6],0.32%
CN(C)CCCOc1ccc(-c2cc(NCCCn3cccn3)nc(S(C)(=O)=O)n2)cc1,dTM,[7],< 2 K
C=CC(=O)Nc1cc(-n2c(=O)ccc3cnc4ccc(-c5ccc(NS(C)(=O)=O)cc5)cc4c32)ccc1C,% of control,[8]; at 1 µM,75%
same,% of control,[8]; at 10 µM,44%
same,% of control,[9]; at 1 µM,100%
same,% of control,[9]; at 10 µM,69%
CN(C)CCOc1ccc(-c2nc(-c3ccncc3)c(-c3ccc4c(c3)CC/C4=N\O)[nH]2)cc1,% of control,[10],100%

# From ChEMBL document CHEMBL5465560, “Selectivity Literature for EUbOPEN Chemogenomic Library” (2024)
